According to patent US20260028354A1, “TETRAHYDRONAPHTHALENE DERIVATIVES AS ESTROGEN RECEPTOR DEGRADERS” (REGENT OF THE UNIVERSITY OF MICHIGAN, priority 2022, published 2026):
Where two headings read alike, the source gives them in different places.

Key:
[1] = biological target: ER (Homo sapiens (Human), UniProt P03372); test: In-cell western blot analysis of ER for "B" compounds; assay type: cell-based; settings: 16 hours, read-out: ICW DC50
Procedure, shortened: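 In-cell western: fixed cells stained with primary antibodies (2 h, RT), then anti-rabbit-680 and anti-mouse-800 secondaries (1:1000, 1 h, RT), imaged on a LI-COR plate reader. Relative ER level in treated wells expressed against untreated and DMSO-treated wells set as 100%.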

[2] = Cell growth assay (WST-8) for "B" compounds; assay type: cell-based; settings: T47D, read-out: Cell growth Inhibition in T47D cell line IC50
Procedure, shortened: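 Cells seeded at 1500/well overnight, then exposed to compounds for 4 days. 10% WST-8 added for 2.5 h at 37 °C and absorbance read at 450 nm. Growth given as absorbance relative to vehicle control, from three repeats.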

ER, sequence (P03372 whole entry): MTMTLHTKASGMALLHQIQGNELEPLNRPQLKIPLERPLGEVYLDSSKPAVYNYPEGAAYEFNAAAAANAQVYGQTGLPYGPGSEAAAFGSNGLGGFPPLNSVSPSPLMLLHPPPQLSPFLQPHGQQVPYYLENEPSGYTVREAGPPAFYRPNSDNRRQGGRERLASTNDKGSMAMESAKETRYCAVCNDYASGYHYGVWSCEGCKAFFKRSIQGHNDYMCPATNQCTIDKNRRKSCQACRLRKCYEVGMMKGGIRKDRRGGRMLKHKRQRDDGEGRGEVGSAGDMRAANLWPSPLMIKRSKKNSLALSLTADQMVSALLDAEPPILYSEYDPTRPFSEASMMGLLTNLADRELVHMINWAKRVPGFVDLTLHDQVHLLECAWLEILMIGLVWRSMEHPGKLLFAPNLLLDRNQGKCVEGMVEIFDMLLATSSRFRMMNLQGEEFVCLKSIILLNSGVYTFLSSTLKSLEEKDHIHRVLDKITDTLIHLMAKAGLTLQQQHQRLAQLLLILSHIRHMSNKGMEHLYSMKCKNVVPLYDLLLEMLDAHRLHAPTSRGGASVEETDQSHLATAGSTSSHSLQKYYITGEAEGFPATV

Structure (SMILES)	DC50 [1] [nM]	IC50 ([2]; T47D cell line) [nM]	IC50 [2] [nM]
O=C1CCC(N2C(=O)c3cc4c(cc3C2=O)CN(CC2COC3(CCN(c5ccc([C@@H]6c7ccc(O)cc7CC[C@@H]6c6ccccc6)cc5)CC3)C2)C4)C(=O)N1 (stereo partly drawn) [Compound B235, 2-(2,6-dioxopiperidin-3-yl)-6-((8-(4-((1R,2S)-6-hydroxy-2-phenyl-1,2,3,4-tetrahydronaphthalen-1-yl)phenyl)-1-oxa-8-azaspiro[4.5]decan-3-yl)methyl)-6,7-dihydropyrrolo[3,4-f]isoindole-1,3(2H,5H)-dione]	> 100	1 to 10	
O=C1CCC(N2Cc3c(ccc4c3OCC43CCN(C(=O)CN4CCC5(CC4)CN(c4ccc([C@@H]6c7ccc(O)cc7CC[C@@H]6c6ccccc6)cc4)C5)CC3)C2=O)C(=O)N1 (stereo partly drawn) [Compound B214, 3-(1′-(2-(2-(4-((1R,2S)-6-hydroxy-2-phenyl-1,2,3,4-tetrahydronaphthalen-1-yl)phenyl)-2,7-diazaspiro[3.5]nonan-7-yl)acctyl)-6-oxo-6,8-dihydro-2H,7H-spiro[furo[2,3-e]isoindole-3,4′-piperidin]-7-yl)piperidine-2,6-dione]	< 10	< 1	
O=C1CCC(N2Cc3cc4c(cc3C2=O)OC[C@@H]2CN(CC(=O)N3CCC5(CC3)CCN(c3ccc([C@@H]6c7ccc8[nH]ncc8c7CC[C@@H]6c6ccccc6)cc3)CC5)CCN42)C(=O)N1 (stereo partly drawn) [Compound B389, 3-((S)-8-oxo-3-(2-oxo-2-(9-(4-((6R,7S)-7-phenyl-6,7,8,9-tetrahydro-3H-benzo[e]indazol-6-yl)phenyl)-3,9-diazaspiro[5.5]undecan-3-yl)ethyl)-1,2,3,4,4a,5,8,10-octahydro-9H-pyrazino[1′,2′:4,5][1,4]oxazino[2,3-f]isoindol-9-yl)piperidine-2,6-dione]	> 100	> 10	
O=C1CC[C@H](N2Cc3c(ccc4c3OCC43CCN(CC4CCC5(CCN(c6ccc([C@@H]7c8ccc(O)cc8CC[C@@H]7c7ccccc7)cc6)CC5)OC4)CC3)C2=O)C(=O)N1 (stereo partly drawn) [Compound B366, (3S)-3-(1′-((9-(4-((1R,2S)-6-hydroxy-2-phenyl-1,2,3,4-tetrahydronaphthalen-1-yl)phenyl)-1-oxa-9-azaspiro[5.5]undecan-3-yl)methyl)-6-oxo-6,8-dihydro-2H,7H-spiro[furo[2,3-e]isoindole-3,4′-piperidin]-7-yl)piperidine-2,6-dione]	< 10		< 1
O=C1CCC(N2Cc3c(ccc4c3OCC43CCN(CC(=O)N4CCC5(CC4)CN(c4ccc([C@@H]6c7ccc(O)cc7CC[C@@H]6c6ccccc6)cc4)C5)CC3)C2=O)C(=O)N1 (stereo partly drawn) [Compound B213, 3-(1′-(2-(2-(4-((1R,2S)-6-hydroxy-2-phenyl-1,2,3,4-tetrahydronaphthalen-1-yl)phenyl)-2,7-diazaspiro[3.5]nonan-7-yl)-2-oxoethyl)-6-oxo-6,8-dihydro-2H,7H-spiro[furo[2,3-e]isoindole-3,4′-piperidin]-7-yl)piperidine-2,6-dione]	< 10		< 1
O=C1CCC(N2C(=O)c3cc4c(cc3C2=O)CN(CC(=O)N2CCOC3(CCN(c5ccc([C@@H]6c7ccc(O)cc7CC[C@@H]6c6ccccc6)cc5)CC3)C2)C4)C(=O)N1 (stereo partly drawn) [Compound B325, 2-(2,6-dioxopiperidin-3-yl)-6-(2-(9-(4-((1R,2S)-6-hydroxy-2-phenyl-1,2,3,4-tetrahydronaphthalen-1-yl)phenyl)-1-oxa-4,9-diazaspiro[5.5]undecan-4-yl)-2-oxoethyl)-6,7-dihydropyrrolo[3,4-f]isoindole-1,3(2H,5H)-dione]	10 to 100	1 to 10	
O=C1CCC(N2Cc3cc4c(cc3C2=O)OC[C@@H]2CN(C(=O)CN3CC(Oc5ccc([C@@H]6c7ccc(O)cc7CC[C@@H]6c6ccccc6)cc5)C3)CCN42)C(=O)N1 (stereo partly drawn) [Compound B151, 3-((S)-3-(2-(3-(4-((1R,2S)-6-hydroxy-2-phenyl-1,2,3,4-tetrahydronaphthalen-1-yl)phenoxy)azetidin-1-yl)acetyl)-8-oxo-1,2,3,4,4a,5,8,10-octahydro-9H-pyrazino[1′,2′:4,5][1,4]oxazino[2,3-f]isoindol-9-yl)piperidine-2,6-dione]	< 10	< 1	
O=C1CCC(N2Cc3cc4c(cc3C2=O)CN(CC(=O)N2CCC3(CC2)CCN(c2ccc([C@@H]5c6ccc(O)cc6CC[C@@H]5c5ccccc5)cc2)CC3)C4)C(=O)N1 (stereo partly drawn) [Compound B166, 3-(6-(2-(9-(4-((1R,2S)-6-hydroxy-2-phenyl-1,2,3,4-tetrahydronaphthalen-1-yl)phenyl)-3,9-diazaspiro[5.5]undecan-3-yl)-2-oxoethyl)-1-oxo-3,5,6,7-tetrahydropyrrolo[3,4-f]isoindol-2(1H)-yl)piperidine-2,6-dione]	< 10	< 1	
O=C1CCC(N2C(=O)c3cc4c(cc3C2=O)N2C[C@@H](NCC3CC5(CCN(c6ccc([C@@H]7c8ccc(O)cc8CC[C@@H]7c7ccccc7)cc6)CC5)C3)C[C@H]2CO4)C(=O)N1 (stereo partly drawn) [Compound B329, (2S,3aS)-8-(2,6-dioxopiperidin-3-yl)-2-(((7-(4-((1R,2S)-6-hydroxy-2-phenyl-1,2,3,4-tetrahydronaphthalen-1-yl)phenyl)-7-azaspiro[3.5]nonan-2-yl)methyl)amino)-2,3,3a,4-tetrahydro-1H,7H-pyrrolo[1′,2′:4,5][1,4]oxazino[2,3-f]isoindole-7,9(8H)-dione]	> 100	> 10	
O=C1CCC(N2Cc3cc4c(cc3C2=O)OC[C@@H]2CN(CC(=O)N3CCC5(CC3)CCN(c3ccc([C@@H]6c7ccc(O)cc7CC[C@@H]6c6ccccc6)cc3)CC5)CCN42)C(=O)N1 (stereo partly drawn) [Compound B147, 3-((S)-3-(2-(9-(4-((1R,2S)-6-hydroxy-2-phenyl-1,2,3,4-tetrahydronaphthalen-1-yl)phenyl)-3,9-diazaspiro[5.5]undecan-3-yl)-2-oxoethyl)-8-oxo-1,2,3,4,4a,5,8,10-octahydro-9H-pyrazino[1′,2′:4,5][1,4]oxazino[2,3-f]isoindol-9-yl)piperidine-2,6-dione]	10 to 100	1 to 10	

More lines, main results first:

DC50 [1] [nM]	Structure (SMILES)	IC50 ([2]; T47D cell line) [nM]	IC50 [2] [nM]
10 to 100	O=C1CCC(N2Cc3c(ccc4c3OC[C@H]3CN(C[C@H]5CCN(c6ccc([C@@H]7c8ccc(O)cc8CC[C@@H]7c7ccccc7)cc6)C5)CCN43)C2=O)C(=O)N1 (stereo partly drawn) [Compound B216, 3-((R)-7-(((R)-1-(4-((1R,2S)-6-hydroxy-2-phenyl-1,2,3,4-tetrahydronaphthalen-1-yl)phenyl)pyrrolidin-3-yl)methyl)-1-oxo-1,3,5,5a,6,7,8,9-octahydro-2H-pyrazino[1′,2′:4,5][1,4]oxazino[2,3-e]isoindol-2-yl)piperidine-2,6-dione]	> 10	
> 100	O=C1CCC(N2Cc3cc4c(cc3C2=O)OC[C@@H]2CN(CC3CC5(CCN(c6ccc([C@@H]7c8ccc(O)cc8CC[C@@H]7c7ccccc7)cc6)CC5)CO3)CCN42)C(=O)N1 (stereo partly drawn) [Compound B173, 3-((4aS)-3-((8-(4-((1R,2S)-6-hydroxy-2-phenyl-1,2,3,4-tetrahydronaphthalen-1-yl)phenyl)-2-oxa-8-azaspiro[4.5]decan-3-yl)methyl)-8-oxo-1,2,3,4,4a,5,8,10-octahydro-9H-pyrazino[1′,2′: 4,5][1,4]oxazino[2,3-f]isoindol-9-yl)piperidine-2,6-dione]	< 1	
< 10	O=C1CC[C@H](N2Cc3cc4c(cc3C2=O)OC[C@@H]2CN(C[C@@H]3COC5(CCN(c6ccc([C@@H]7c8ccc(O)cc8CC[C@@H]7c7ccccc7)cc6)CC5)C3)CCN42)C(=O)N1 [Compound B399, (S)-3-((S)-3-(((R)-8-(4-((1R,2S)-6-hydroxy-2-phenyl-1,2,3,4-tetrahydronaphthalen-1-yl)phenyl)-1-oxa-8-azaspiro[4.5]decan-3-yl)methyl)-8-oxo-1,2,3,4,4a,5,8,10-octahydro-9H-pyrazino[1′,2′:4,5][1,4]oxazino[2,3-f]isoindol-9-yl)piperidine-2,6-dione]	< 1	
10 to 100	CN(C(=O)c1ccc2c(c1)OC[C@H]1CN(CC3CCN(c4ccc([C@@H]5c6ccc(O)cc6CC[C@@H]5c5ccccc5)cc4)CC3)CCN21)C1CCC(=O)NC1=O (stereo partly drawn) [Compound B255, (4aR)-N-(2,6-dioxopiperidin-3-yl)-3-((1-(4-((1R,2S)-6-hydroxy-2-phenyl-1,2,3,4-tetrahydronaphthalen-1-yl)phenyl)piperidin-4-yl)methyl)-N-methyl-1,2,3,4,4a,5-hexahydrobenzo[b]pyrazino[1,2-d][1,4]oxazine-8-carboxamide]	1 to 10	
< 10	O=C1CCC(N2Cc3cc4c(cc3C2=O)OC[C@@H]2CN(C(=O)CN3CC5(C3)CN(c3ccc([C@@H]6c7ccc(O)cc7CC[C@@H]6c6ccccc6)cc3)C5)CCN42)C(=O)N1 (stereo partly drawn) [Compound B205, 3-((S)-3-(2-(6-(4-((1R,2S)-6-hydroxy-2-phenyl-1,2,3,4-tctrahydronaphthalen-1-yl)phenyl)-2,6-diazaspiro[3.3]heptan-2-yl)acetyl)-8-oxo-1,2,3,4,4a,5,8,10-octahydro-9H-pyrazino[1′,2′:4,5][1,4]oxazino[2,3-f]isoindol-9-yl)piperidine-2,6-dione]	1 to 10	
10 to 100	O=C1CCC(N2Cc3cc4c(cc3C2=O)OC[C@@H]2CN(C(=O)CN3C[C@@H]5CN(c6ccc([C@@H]7c8ccc(O)cc8CC[C@@H]7c7ccccc7)cc6)C[C@@H]5C3)CCN42)C(=O)N1 (stereo partly drawn) [Compound B157, 3-((S)-3-(2-((3aR,6aS)-5-(4-((1R,2S)-6-hydroxy-2-phenyl-1,2,3,4-tetrahydronaphthalen-1-yl)phenyl)hexahydropyrrolo[3,4-c]pyrrol-2(1H)-yl)acetyl)-8-oxo-1,2,3,4,4a,5,8,10-octahydro-9H-pyrazino[1′,2′:4,5][1,4]oxazino[2,3-f]isoindol-9-yl)piperidine-2,6-dione]	< 1	
